This note sets out measurements from patent US20260242371A1, “LIPID PRODRUGS OF BROM[…] USES THEREOF” (priority 2023, published 2026).

SMILES strings stand for the structures.

The target in the data set is T1, recombinant human monoacylglyceride lipase (rhMAGL) (Homo sapiens, UniProt Q99685).
T1 sequence (Q99685 1-303): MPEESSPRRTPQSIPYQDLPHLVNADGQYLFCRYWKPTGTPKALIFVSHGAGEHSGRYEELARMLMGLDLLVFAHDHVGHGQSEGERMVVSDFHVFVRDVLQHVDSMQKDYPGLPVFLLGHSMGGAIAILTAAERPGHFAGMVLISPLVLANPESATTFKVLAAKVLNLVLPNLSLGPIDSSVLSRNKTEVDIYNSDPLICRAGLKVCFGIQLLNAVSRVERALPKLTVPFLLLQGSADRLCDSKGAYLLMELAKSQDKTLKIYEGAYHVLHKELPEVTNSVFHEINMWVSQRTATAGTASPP
Kind of data set: In vitro monoglyceride stability of lipid prodrugs with lipoprotein lipase and rhMAGL. It is filed as in vitro ADME. The note with it: 50 μM prodrug, 10 mg/mL BSA, LPL 300 units/mL, 180 vs 30 minutes, 37° C., scale −10 to 10. The procedure:
The stability of lipid prodrugs of 2-bromo-LSD was evaluated in the presence or absence of recombinant human monoacylglyceride lipase (rhMAGL). 50 µM of prodrug was incubated in 10 mg/mL BSA supplemented with lipoprotein lipase (300 units/mL) and rhMAGL (0-0.5 μg/mL). The concentration of MAGL may be adjusted based on observed activity. Reactions were initiated via the addition of prodrug and incubated at 37° C. for 180 minutes. Aliquots were removed at 30, 60, 120, and 180 minutes and the reaction quenched with the addition of cold acetonitrile spiked with internal standard(s) (1:3 sample to acetonitrile). Samples were vortexed and centrifuged and the supernatant transferred and diluted in 0.1% formic acid water (1:3 supernatant to 0.1% formic acid water). Samples were analyzed via LC-MS. Monoglyceride stability was calculated using the following equations:
LPL MG Ratio=MG Peak Area at 180 minutes for LPL only/MG Peak area at 30 minutes for LPL only
rhMAGLMG Ratio=MG Peak Area at 180 minutes for LPLand rhMAGL/MG Peak Area at 30 minutes for LPLand rhMAGL
MG Stability=((rhMAGLMG Ratio−(1−LPL MG Ratio))*10
Stability is calculated on a scale of −10 to 10, with 10 representing 100% monoglyceride remaining (i.e., highest stability) and −10 representing 100% monoglyceride loss (i.e., lowest stability). Monoglyceride stability is represented by the following categories, wherein A is a stability score of 5 to 10, B is a stability score of 0 to 5, C is a stability score of −5 to 0, and D is a stability score of −5 to −10.
For `CCCCCCCC/C=C\CCCCCCCC(=O)OCC(COC(=O)CCCCCCC/C=C\CCCCCCCC)OC(=O)CC(C)CC(=O)n1c(Br)c2c3c(cccc31)C1=C[C@@H](C(=O)N(CC)CC)CN(C)[C@@H]1C2` (stereo partly drawn) [Compound I-1, 2BL-C5bMe-2-TG-oleate], the “Monoacylglyceride Stability” value is “A (A is a stability score of 5 to 10)”.

For the molecule `CCCCCCCC/C=C\CCCCCCCC(=O)OCC(COC(=O)CCCCCCC/C=C\CCCCCCCC)OC(=O)CC(C)CCCCC(=O)n1c(Br)c2c3c(cccc31)C1=C[C@@H](C(=O)N(CC)CC)CN(C)[C@@H]1C2` (stereo partly drawn) [Compound I-2, 2BL-C8bMe-2-TG-oleate], the “Monoacylglyceride Stability” value is listed as “A (A is a stability score of 5 to 10)”. Turning to `CCCCCCCC/C=C\CCCCCCCC(=O)OCC(COC(=O)CCCCCCC/C=C\CCCCCCCC)OC(=O)CC(C)CCCCCCC(C)CC(=O)n1c(Br)c2c3c(cccc31)C1=C[C@@H](C(=O)N(CC)CC)CN(C)[C@@H]1C2` (stereo partly drawn) [Compound I-3, 2BL-C12b′bMe-2-TG-oleate], the “Monoacylglyceride Stability” value is “B (B is a stability score of 0 to 5)”.

In the case of `CCCCCCCC/C=C\CCCCCCCC(=O)OCC(COC(=O)CCCCCCC/C=C\CCCCCCCC)OC(=O)CC(C)CC(=O)OCn1c(Br)c2c3c(cccc31)C1=C[C@@H](C(=O)N(CC)CC)CN(C)[C@@H]1C2` (stereo partly drawn) [Compound I-4, 2BL-ASI-C5bMe-2-TG-oleate], the “Monoacylglyceride Stability” value was “D (D is a stability score of −5 to −10)”. With `CCCCCCCC/C=C\CCCCCCCC(=O)OCC(COC(=O)CCCCCCC/C=C\CCCCCCCC)OC(=O)CC(C)CCCCC(=O)OCn1c(Br)c2c3c(cccc31)C1=C[C@@H](C(=O)N(CC)CC)CN(C)[C@@H]1C2` (stereo partly drawn) [Compound I-5, 2BL-ASI-C8bMe-2-TG-oleate], the “Monoacylglyceride Stability” value is listed as “C (C is a stability score of −5 to 0)”.

On to `CCCCCCCC/C=C\CCCCCCCC(=O)OCC(COC(=O)CCCCCCC/C=C\CCCCCCCC)OC(=O)CC(C)CCCCCCCCC(=O)OCn1c(Br)c2c3c(cccc31)C1=C[C@@H](C(=O)N(CC)CC)CN(C)[C@@H]1C2` (stereo partly drawn) [Compound I-6, 2BL-ASI-C12bMe-2-TG-oleate], for which the “Monoacylglyceride Stability” value is listed as “C (C is a stability score of −5 to 0)”. The value for `CCCCCCCC(=O)OCC(COC(=O)CCCCCCC)OC(=O)CC(C)CC(=O)OCOC(=O)n1c(Br)c2c3c(cccc31)C1=C[C@@H](C(=O)N(CC)CC)CN(C)[C@@H]1C2` (stereo partly drawn) [Compound I-7, 2BL-CASI-C5bMe-2-TG-octanoate] was “A (A is a stability score of 5 to 10)”; that for `CCCCCCCC(=O)OCC(COC(=O)CCCCCCC)OC(=O)CC(C)(C)CC(=O)OCOC(=O)n1c(Br)c2c3c(cccc31)C1=C[C@@H](C(=O)N(CC)CC)CN(C)[C@@H]1C2` [Compound I-9, 2BL-CASI-C5bbGMe-2-TG-octanoate] was “A (A is a stability score of 5 to 10)”.

Regarding `CCCCCCCC/C=C\CCCCCCCC(=O)OCC(COC(=O)CCCCCCC/C=C\CCCCCCCC)OC(=O)CC(C)CC(=O)OCCCC(=O)n1c(Br)c2c3c(cccc31)C1=C[C@@H](C(=O)N(CC)CC)CN(C)[C@@H]1C2` (stereo partly drawn) [Compound I-14, 2BL-FSI4-C5bMe-2-TG-oleate], the “Monoacylglyceride Stability” value is given as “A (A is a stability score of 5 to 10)”. With `CCCCCCCC(=O)OCC(COC(=O)CCCCCCC)OC(=O)CC(C)(C)CC(=O)OCCCC(=O)n1c(Br)c2c3c(cccc31)C1=C[C@@H](C(=O)N(CC)CC)CN(C)[C@@H]1C2` [Compound I-15, 2BL-FSI4-C5bbGMe-2-TG-octanoate] the entry was “B (B is a stability score of 0 to 5)”. The value for `CCCCCCCC(=O)OCC(COC(=O)CCCCCCC)OC(=O)CC(C)(C)CC(=O)OCCCCC(=O)n1c(Br)c2c3c(cccc31)C1=C[C@@H](C(=O)N(CC)CC)CN(C)[C@@H]1C2` [Compound I-16, 2BL-FSI5-C5bbGMe-2-TG-octanoate] was “A (A is a stability score of 5 to 10)”.

With `CCCCCCCC/C=C\CCCCCCCC(=O)OCC(COC(=O)CCCCCCC/C=C\CCCCCCCC)OC(=O)CC(C)CC(=O)OCCCCC(=O)n1c(Br)c2c3c(cccc31)C1=C[C@@H](C(=O)N(CC)CC)CN(C)[C@@H]1C2` (stereo partly drawn) [Compound I-17, 2BL-FSI5-C5bMe-2-TG-oleate], the “Monoacylglyceride Stability” value is listed as “A (A is a stability score of 5 to 10)”.
